Test results taken from ChEMBL document CHEMBL3621040, “Dicarabrol, a new dimeric sesquiterpene from Carpesium abrotanoides L” (Bioorg Med Chem Lett, 2015).
≈ marks a conversion by molar mass, not a printed value.

Experiments:
[1] = system: HeLa; assay: Cytotoxicity against human HeLa cells after 72 hrs by CCK8 assay; type: functional, cell-based
[2] = system: NCI-H1975; assay: Cytotoxicity against human NCI-H1975 cells after 72 hrs by CCK8 assay; type: functional, cell-based; conditions: NCI-H1975, 72 h
[3] = system: U-937; assay: Cytotoxicity against human U937 cells after 72 hrs by CCK8 assay; type: functional, cell-based; conditions: U-937, 72 h
[4] = system: DU-145; assay: Cytotoxicity against human DU145 cells after 72 hrs by CCK8 assay; type: functional, cell-based; conditions: DU-145, 72 h
[5] = system: HL-60; assay: Cytotoxicity against human HL60 cells after 72 hrs by CCK8 assay; type: functional, cell-based; conditions: HL-60, 72 h
[6] = system: MOLT-4; assay: Cytotoxicity against human MOLT4 cells after 72 hrs by CCK8 assay; type: functional, cell-based; conditions: MOLT-4, 72 h
[7] = system: Influenza A virus; assay: Antiviral activity against Influenza A virus H1N1 infected in MDCK cells assessed as protection against virus-induced cytopathic effect after 48 hrs by crystal violet staining; type: functional, organism-based
[8] = system: K562; assay: Cytotoxicity against human K562 cells after 72 hrs by CCK8 assay; type: functional, cell-based; conditions: K562, 72 h
[9] = system: Mycobacterium tuberculosis; assay: Antimycobacterial activity against Mycobacterium tuberculosis H37Ra after 7 days by alamar blue dye assay; type: functional; conditions: 168 h
[10] = system: Influenza A virus; assay: Antiviral activity against Influenza A virus H3N2 infected in MDCK cells assessed as protection against virus-induced cytopathic effect after 48 hrs by crystal violet staining; type: functional, organism-based
[11] = system: A549; assay: Cytotoxicity against human A549 cells after 72 hrs by CCK8 assay; type: functional, cell-based; conditions: A549, 72 h
[12] = Cytotoxicity against human SGC7901 cells after 72 hrs by CCK8 assay; type: functional, cell-based; conditions: SGC-7901, 72 h
[13] = system: MCF7; assay: Cytotoxicity against human MCF7 cells after 72 hrs by CCK8 assay; type: functional, cell-based; conditions: MCF7, 72 h

Molecule `C=C1C(=O)O[C@@H]2C[C@]3(C)[C@@H](CCC(C)O)C[C@@]4(C(=O)O[C@@H]5C[C@@H]6[C@@H](CC[C@H](C)O)[C@@H]6C[C@@H]54)[C@@H]3C[C@H]12` (stereo not given in full) has an IC50 [1] of 610 nM, an IC50 [2] of 1400 nM and an IC50 [3] of 150 nM. The IC50 [4] was 310 nM, the IC50 [5] was 100 nM and the IC50 [6] was 1300 nM. It also gave an IC50 [7] of 15900 nM, an IC50 [8] of 1200 nM and an MIC [9] of 3.7 µM (≈ 1.8 µg/mL). For the same molecule, the IC50 [10] was 30000 nM, the IC50 [11] was 2700 nM and the IC50 [12] was 710 nM. It also gave an IC50 [13] of 3300 nM.

Work on `C=C1C(=O)O[C@H]2C[C@@]3(C)O[C@@H]3CC[C@@]3(C)O[C@@H]3C[C@H]12` yielded an IC50 [1] of 1000 nM, an IC50 [2] of 5400 nM and an IC50 [3] of 210 nM. It also gave an IC50 [4] of 380 nM, an IC50 [5] of 180 nM and an IC50 [6] of 1200 nM. For the same molecule, the IC50 [7] was 10800 nM, the IC50 [8] was 1700 nM and the MIC [9] was 6 µM (≈ 1.59 µg/mL). It also gave an IC50 [10] of 11600 nM, an IC50 [11] of 2000 nM and an IC50 [12] of 6400 nM. The IC50 [13] was 4100 nM.

`NNC(=O)c1ccncc1` [ISONIAZID] showed an MIC [9] of 2 µM (≈ 0.274 µg/mL).

Molecule `CCOC(=O)C1=C[C@@H](OC(CC)CC)[C@H](NC(C)=O)[C@@H](N)C1` [OSELTAMIVIR] has an IC50 [7] of 25 nM and an IC50 [10] of 15 nM.

For `CC(=O)O[C@H]1C(=O)[C@@]2(C)[C@H]([C@H](OC(=O)c3ccccc3)[C@]3(O)C[C@H](OC(=O)[C@H](O)[C@@H](NC(=O)c4ccccc4)c4ccccc4)C(C)=C1C3(C)C)[C@]1(OC(C)=O)CO[C@@H]1C[C@@H]2O` [PACLITAXEL], the IC50 [2] was 2800 nM, the IC50 [3] was 2100 nM and the IC50 [4] was 3100 nM. The IC50 [5] was 3800 nM, the IC50 [6] was 2700 nM and the IC50 [8] was 3800 nM. It also gave an IC50 [11] of 2100 nM and an IC50 [12] of 9800 nM.

Work on `C=C1C(=O)O[C@H]2C[C@@H](C)[C@@H]3CC[C@H](O)[C@@]3(C)C[C@H]12` [PSEUDOGUAIANOLIDE] yielded an IC50 [1] of 6000 nM, an IC50 [2] of 13000 nM and an IC50 [3] of 2200 nM. The IC50 [4] was 3100 nM, the IC50 [5] was 2400 nM and the IC50 [6] was 5500 nM. It also gave an IC50 [7] of 29300 nM, an IC50 [8] of 17000 nM and an MIC [9] of 7.6 µM (≈ 1.9 µg/mL). For the same molecule, the IC50 [10] was 47300 nM, the IC50 [11] was 6200 nM and the IC50 [12] was 22000 nM. It also gave an IC50 [13] of 11000 nM.
